# Laboratory results published in US7855290B2, “Pyridine derivatives and pyrimidine derivatives (3)” (Eisai R&D Management Co., Ltd., priority 2005, dated 2010).
# Biological target: T1, HGFR (Homo sapiens, UniProt P08581)
# T1 construct: endogenous in cells; host or cells: MKN-45 human gastric cancer cells
# Assay: Inhibitory activity against the HGFR autophosphorylation using ELISA (MKN-45 cells)
# Assay type: cell-based
# Settings: 1 hr with test substance
# Method in brief: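 MKN-45 gastric cancer cells, plated overnight in 1% FBS RPMI1640, treated with compound 1 h at 37° C and lysed. Lysate captured on anti-phosphotyrosine (PY20) plates, probed with anti-HGFR then HRP anti-rabbit IgG; TMB absorbance at 450 nm. Activity expressed as % of untreated extract (100%) versus lysis buffer blank (0%).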
# T1 sequence (P08581 25-1390): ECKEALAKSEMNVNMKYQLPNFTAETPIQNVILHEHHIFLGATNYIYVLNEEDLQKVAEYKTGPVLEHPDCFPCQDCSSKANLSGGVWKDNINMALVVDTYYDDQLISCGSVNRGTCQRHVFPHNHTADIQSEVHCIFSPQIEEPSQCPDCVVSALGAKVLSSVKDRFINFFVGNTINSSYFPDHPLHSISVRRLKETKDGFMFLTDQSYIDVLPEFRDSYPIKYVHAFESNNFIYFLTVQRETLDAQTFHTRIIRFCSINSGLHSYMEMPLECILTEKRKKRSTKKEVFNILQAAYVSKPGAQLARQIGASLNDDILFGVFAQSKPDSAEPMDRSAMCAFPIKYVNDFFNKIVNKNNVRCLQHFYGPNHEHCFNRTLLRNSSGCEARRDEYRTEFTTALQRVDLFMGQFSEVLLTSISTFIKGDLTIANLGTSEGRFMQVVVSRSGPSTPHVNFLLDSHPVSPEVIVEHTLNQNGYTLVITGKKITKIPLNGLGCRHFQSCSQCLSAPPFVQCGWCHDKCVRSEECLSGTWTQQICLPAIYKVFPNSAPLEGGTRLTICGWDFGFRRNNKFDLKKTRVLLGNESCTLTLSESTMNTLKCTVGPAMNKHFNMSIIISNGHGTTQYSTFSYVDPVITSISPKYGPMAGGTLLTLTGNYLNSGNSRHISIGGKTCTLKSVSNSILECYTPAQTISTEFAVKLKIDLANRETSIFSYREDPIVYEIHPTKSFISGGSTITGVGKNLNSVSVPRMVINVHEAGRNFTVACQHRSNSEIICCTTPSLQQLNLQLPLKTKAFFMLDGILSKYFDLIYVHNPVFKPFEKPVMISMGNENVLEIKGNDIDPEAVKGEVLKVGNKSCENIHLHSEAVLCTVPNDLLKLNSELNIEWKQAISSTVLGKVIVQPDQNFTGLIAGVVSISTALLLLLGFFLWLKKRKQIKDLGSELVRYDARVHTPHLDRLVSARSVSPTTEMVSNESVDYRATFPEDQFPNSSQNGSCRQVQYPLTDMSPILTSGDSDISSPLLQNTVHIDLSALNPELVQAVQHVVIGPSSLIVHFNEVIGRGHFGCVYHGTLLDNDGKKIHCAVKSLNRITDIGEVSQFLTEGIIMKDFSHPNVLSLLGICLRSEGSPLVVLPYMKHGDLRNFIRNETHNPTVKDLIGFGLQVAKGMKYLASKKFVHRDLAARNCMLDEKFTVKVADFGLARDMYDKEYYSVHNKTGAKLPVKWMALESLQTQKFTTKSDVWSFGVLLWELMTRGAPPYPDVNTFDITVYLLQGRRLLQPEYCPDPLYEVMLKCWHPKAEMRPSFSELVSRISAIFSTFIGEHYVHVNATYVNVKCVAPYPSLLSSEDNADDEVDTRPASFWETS
row,IC50 [nM],SMILES
1,15,"CN(C)[C@@H]1CCN(C(=O)Nc2cc(Oc3ccc(NC(=O)C4(C(=O)Nc5ccc(F)cc5)CC4)cc3F)ccn2)C1 [Example 36, N-(4-{[2-({[(3R)-3-(Dimethylamino)pyrrolidin-1-yl]carbonyl}amino)pyridin-4-yl]oxy}-3-fluorophenyl)-N′-(4-fluorophenyl)cyclopropane-1,1-dicarboxamide]"
2,6.6,"O=C(Nc1cc(Oc2ccc(NC(=O)C3(C(=O)Nc4ccc(F)cc4)CC3)c(F)c2)ccn1)N1CCC(CN2CCC2)CC1 [Example 37, N-(4-{[2-({[4-(Azetidin-1-ylmethyl)piperidin-1-yl]carbonyl}amino)pyridin-4-yl]oxy}-2-fluorophenyl)-N′-(4-fluorophenyl)cyclopropane-1,1-dicarboxamide]"
3,18,"CN(C)C1CN(C2CCN(C(=O)Nc3cc(Oc4ccc(NC(=O)C5(C(=O)Nc6ccc(F)cc6)CC5)cc4)ccn3)CC2)C1 [Example 38, N-[4-({2-[({4-[3-(Dimethylamino)azetidin-1-yl]piperidin-1-yl}carbonyl)amino]pyridin-4-yl}oxy)phenyl]-N′-(4-fluorophenyl)cyclopropane-1,1-dicarboxamide]"
4,16,"CN(C)CCN1CCC(N(C)C(=O)Nc2cc(Oc3ccc(NC(=O)C4(C(=O)Nc5ccc(F)cc5)CC4)cc3)ccn2)CC1 [Example 39, N-(4-{[2-({[{1-[2-(Dimethylamino)ethyl]piperidin-4-yl}(methyl)amino]carbonyl}amino)pyridin-4-yl]oxy}phenyl)-N′-(4-fluorophenyl)cyclopropane-1,1-dicarboxamide]"
5,8,"O=C(Nc1cc(Oc2ccc(NC(=O)C3(C(=O)Nc4ccc(F)cc4)CC3)c(F)c2)ccn1)N1CCC(CN2CCCC2)CC1 [Example 40, N-(4-Fluorophenyl)-N′-(2-fluoro-4-{[2-({[4-(pyrrolidin-1-ylmethyl)piperidin-1-yl]carbonyl}amino)pyridin-4-yl]oxy}phenyl)cyclopropane-1,1-dicarboxamide]"
6,16,"CN(C)[C@H]1CCN(C(=O)Nc2cc(Oc3ccc(NC(=O)C4(C(=O)Nc5ccc(F)cc5)CC4)cc3)ccn2)C1 [Example 41, N-(4-{[2-({[(3S)-3-(Dimethylamino)pyrrolidin-1-yl]carbonyl}amino)pyridin-4-yl]oxy}phenyl)-N′-(4-fluorophenyl)cyclopropane-1,1-dicarboxamide]"
7,42,"CN(C)[C@@H]1CCN(C(=O)Nc2cc(Oc3ccc(NC(=O)C4(C(=O)Nc5ccc(F)cc5)CC4)cc3)ccn2)C1 [Example 42, N-(4-{[2-({[(3R)-3-(Dimethylamino)pyrrolidin-1-yl]carbonyl}amino)pyridin-4-yl]oxy}phenyl)-N′-(4-fluorophenyl)cyclopropane-1,1-dicarboxamide]"
8,330,"CCN(CC)CCCNC(=O)Nc1cc(Oc2ccc(NC(=O)C3(C(=O)Nc4ccc(F)cc4)CC3)c(Cl)c2)ccn1 [Example 43, N-[2-Chloro-4-({2-[({[3-(diethylamino)propyl]amino}carbonyl)amino]pyridin-4-yl}oxy)phenyl]-N′-(4-fluorophenyl)cyclopropane-1,1-dicarboxamide]"
9,80,"CCN(CC)CCCN(C)C(=O)Nc1cc(Oc2ccc(NC(=O)C3(C(=O)Nc4ccc(F)cc4)CC3)cc2F)ccn1 [Example 44, N-(4-{[2-({[[3-(Diethylamino)propyl](methyl)amino]carbonyl}amino)pyridin-4-yl]oxy}-3-fluorophenyl)-N′-(4-fluorophenyl)cyclopropane-1,1-dicarboxamide]"
10,440,"CCN(CC)CCCNC(=O)Nc1cc(Oc2ccc(NC(=O)C3(C(=O)Nc4ccc(F)cc4)CC3)cc2C)ccn1 [Example 45, N-[4-({2-[({[3-(Diethylamino)propyl]amino}carbonyl)amino]pyridin-4-yl}oxy)-3-methylphenyl]-N′-(4-fluorophenyl)cyclopropane-1,1-dicarboxamide]"
